In data set [1] the test system is AR 1.0 cells. Put plainly: Proliferation assay with and without fixed concentration of doxorubicin (sulphorhodamine B). The data set is classed as cell-based, mouse. To be noted: four days. An excerpt:
Compounds of formula A were examined for their ability to potentiate the toxicity of doxorubicin in AR 1.0 cells.

The test system of data set [2] is AR 1.0 cells. Put plainly: Drug accumulation assay (tritiated daunorubicin) in MDR resistant AR 1.0 cells. Format: cell-based. The settings on record: Mus musculus, DNR 2 μM; for IC50: 37° C., 1 hr; for Emax: 1 h, 100% = accumulation with 100 μM Verapamil, read-out: MAX accumulation (% 100 μm VRP). Here is the method:
The EMT6 mouse mammary carcinoma cell line and the MDR resistant subline AR 1.0 were cultured in RPMI 1640 medium containing 10% foetal calf serum and 2 mM glutamine at 37° C. in 5% CO2 . Cells were passaged between 1 in 200 and 1 in 2000 in the case of the parental cell line and between 1 in 20 and 1 in 200 in the case of the MDR resistant subline, after trypsinisation (0.25% trypsin, 0.2 gl^-1, EDTA).
AR 1.0 cells were seeded into 96 well opaque culture plates (Canberra Packard). The assay medium contained a mixture of tritiated Daunorubicin (DNR), a cytotoxic agent, and unlabelled DNR (0.25μ Ci/ml; 2 μM). Compounds of formula A were serially diluted in assay medium over a range of concentrations from 100 nM to 100 μM. The cells were incubated at 37° C. for 1 hr before washing and counting of cell associated radioactivity. Each assay included a titration of the known resistance modifying agent Verapamil as positive control. Results were expressed as % maximum accumulation where 100% accumulation is that observed in the presence of 100 μM Verapamil.

Data set [3] has as its system AR 1.0 cells. As to the kind of experiment: Potentiation of doxorubicin toxicity (potentiation index) in AR 1.0 cells. The data set is classed as cell-based, mouse. To be noted: four days.
Another data set concerns MDR cells. To be noted: in vitro and in vivo; Cancer Res., 41, 1967-1972 (1981); cited from earlier work.
Setting [4] is: Mus musculus, 96 h, compound alone, read-out: COMPOUND TOXICITY (IC50).
Where [5] appears, read: cytotoxic agent 0.50 μg/ml, 5760 min, read-out: TOXICITY WITH CYTOTOXIC AGENT (IC 50).
The mark [6] stands for this setting: cytotoxic agent 1.00 μg/ml, 5760 min, read-out: TOXICITY WITH CYTOTOXIC AGENT (IC 50).

Consider 15 compounds from patent US5852018A, “Pharmaceutical piperazine compounds” (Xenova Limited, priority 1994, dated 1998).

“And” between values parts separate entries of the source, which are not always exact repeats. Identical values can stand only once.

For `COC(=O)Cn1c(=O)/c(=C/c2ccccc2)[nH]c(=O)/c1=C/c1ccc(OC)cc1` [Compound 1486, Methyl (3Z,6Z)-3-benzylidene-6-(4-methoxybenzylidene)-2,5-dioxo-1-piperazinylacetate], the IC50 with AR 1.0 cells [1] (setting [4]) turned out to be 10 µM; in the data set with AR 1.0 cells [2], 50 µM.

On to `CCCCCOc1n/c(=C\c2ccccc2)c(=O)n(C)/c1=C\c1ccccc1` [Compound 1855], for which the figures for the IC50 in the data set on AR 1.0 cells [1] (setting [4]), with AR 1.0 cells [1] (setting [5]) and in the data set with AR 1.0 cells [2] were 6 µM, 0.8 µM and 10 µM, respectively.

`COc1ccc(/C=c2/c(=O)[nH]/c(=C\c3ccccc3)c(=O)n2CC(=O)N2CCCC2)cc1` [Compound 1521, N,N-Tetramethylene-(3Z,6Z)-3-benzylidene-6-(4-methoxybenzylidene)-2,5-dioxo-1-piperazinylacetamide]: in the data set with AR 1.0 cells [1] (setting [4]), the IC50 worked out at 70 µM. In addition, in the data set with AR 1.0 cells [2], the Emax stood at 65.2% and the IC50 came out at 30 µM.

As for `COc1ccc(/C=c2\[nH]c(=O)/c(=C/c3ccccc3)n(CC3CC3)c2=O)cc1` [Compound 1500], in the data set on AR 1.0 cells [3] (Conc Comp 3 μM), the “Potentiation Index” value was 10. Besides, the IC50 with AR 1.0 cells [1] (setting [4]) was 20 µM. Moreover, in the data set on AR 1.0 cells [2], the Emax was found to be 91.3% and the IC50 was determined as 15 µM.

Consider `COc1ccc(/C=c2/c(=O)n(CC3CC3)/c(=C\c3ccccc3)c(=O)n2C)cc1` [Compound 1833], for which, in the data set with AR 1.0 cells [3] (Conc Comp 3 μM), the “Potentiation Index” value came to 20. The results for the IC50 in the data set with AR 1.0 cells [1] (setting [4]), with AR 1.0 cells [1] (setting [5]) and in the data set with AR 1.0 cells [2] were 9 µM, 1 µM and 12 µM, respectively.

As to `CC(=O)OCCn1c(=O)/c(=C/c2ccccc2)n(C)c(=O)/c1=C/c1ccccc1` [Compound 1817, (3Z,6Z)-1-(2-Acetoxyethyl)-3,6-dibenzylidene-4-methyl-2,5-piperazinedione], the IC50 in the data set with AR 1.0 cells [1] (setting [4]) is 20 µM; in the data set on AR 1.0 cells [1] (setting [5]), 1.5 µM; with AR 1.0 cells [2], 20 µM.

In the case of `Cn1c(=O)/c(=C/c2ccccc2)n(CC2OCCO2)c(=O)/c1=C/c1ccccc1` [Compound 1823, (3Z,6Z)-3,6-Dibenzylidene-4-methyl-2,5-dioxo-1-piperazinylacetaldehydeethylene acetal], the “Potentiation Index” value in the data set with AR 1.0 cells [3] (Conc Comp 3 μM) came to 20. Further, the IC50 is 30 µM in the data set on AR 1.0 cells [1] (setting [4]), 0.7 µM in the data set with AR 1.0 cells [1] (setting [5]) and 9 µM in the data set with AR 1.0 cells [2].

`CCN(CC)C(=O)Cn1c(=O)/c(=C/c2ccc(OC)cc2)[nH]c(=O)/c1=C/c1ccccc1` [Compound 1527, N,N-Diethyl-(3Z,6Z)-6-benzylidene-3-(4-methoxybenzylidene)-2,5-dioxo-1-piperazinylacetamide]: the IC50 worked out at 40 µM with AR 1.0 cells [1] (setting [4]), 1.5 µM in the data set with AR 1.0 cells [1] (setting [6]) and 40 µM with AR 1.0 cells [2]. Besides, the Emax in the data set on AR 1.0 cells [2] is 73.9%.

For the compound `Cn1c(=O)/c(=C/c2ccccc2)nc(OCCCN2C(=O)c3ccccc3C2=O)/c1=C/c1ccccc1` [Compound 1824, (3Z,6Z)-3,6-Dibenzylidene-1-methyl-5-(3-phthalimidopropoxy)-3,6-dihydro-2-pyrazinone], the “Potentiation Index” value in the data set with AR 1.0 cells [3] (Conc Comp 3 μM) is 60 and 80. For the same compound, the IC50 in the data set with AR 1.0 cells [1] (setting [4]) came to 7 µM; in the data set with AR 1.0 cells [2], 3 µM.

Regarding `COC(=O)Cn1c(=O)/c(=C/c2ccc(OC)cc2)[nH]c(=O)/c1=C/c1ccccc1` [Compound 1490, Methyl (3Z,6Z)-6-benzylidene-3-(4-methoxybenzylidene)-2,5-dioxo-1-piperazinylacetate], the figures for the IC50 in the data set with AR 1.0 cells [1] (setting [4]), in the data set on AR 1.0 cells [1] (setting [6]) and in the data set on AR 1.0 cells [2] were 30 µM, 2 µM and 30 µM, respectively. Besides, the Emax in the data set with AR 1.0 cells [2] was found to be 63.6%.

Turning to `COc1ccc(/C=c2/c(=O)[nH]/c(=C\c3ccccc3)c(=O)n2CC2CC2)cc1` [Compound 1454, (3Z,6Z)-3-Benzylidene-1-cyclopropylmethyl-6-(4-methoxybenzylidene)-2,5-piperazinedione], the “Potentiation Index” value with AR 1.0 cells [3] (Conc Comp 5 μM) is 10. Further, the figures for the IC50 in the data set on AR 1.0 cells [1] (setting [4]) and in the data set on AR 1.0 cells [2] were 5 µM and 10 µM, respectively.

For the compound `COc1ccc(CCN(C)CCCC(C#N)(c2ccc(OC)c(OC)c2)C(C)C)cc1OC` (stereo not drawn) [Verapamil], the “sensitisation of MDR cells to Vinca alkaloids” value with MDR cells is “sensitise MDR cells to Vinca alkaloids in vitro and in vivo”.

With `Cn1c(=O)/c(=C/c2ccccc2)nc(OCC2OCCO2)/c1=C/c1ccccc1` [Compound 1822, (3Z,6Z)-3,6-Dibenzylidene-1-methyl-2-oxo-1,2,3,6-tetrahydro-5-pyrazinyloxyacetaldehyde ethylene acetal], the IC50 in the data set on AR 1.0 cells [1] (setting [4]) is 5 µM; in the data set with AR 1.0 cells [2] it was 9 µM.

Regarding `Cn1c(=O)/c(=C/c2ccccc2)n(Cc2ccccc2)c(=O)/c1=C/c1ccccc1` [Compound 1779, (3Z,6Z)-1-Benzyl-3,6-dibenzylidene-4-methyl-2,5-piperazinedione], the “Potentiation Index” value in the data set on AR 1.0 cells [3] (Conc Comp 5 μM) was 40. Also, the IC50 is 15 µM in the data set with AR 1.0 cells [1] (setting [4]), 0.8 µM with AR 1.0 cells [1] (setting [6]) and 15 µM in the data set on AR 1.0 cells [2].

Take `C=CCn1c(=O)/c(=C/c2ccccc2)n(C)c(=O)/c1=C/c1ccccc1` [Compound 1825, (3Z,6Z)-1-Allyl-3,6-dibenzylidene-4-methyl-2,5-piperazinedione]: the “Potentiation Index” value with AR 1.0 cells [3] (Conc Comp 3 μM) came to 15. For the same compound, the values for the IC50 with AR 1.0 cells [1] (setting [4]), with AR 1.0 cells [1] (setting [5]) and with AR 1.0 cells [2] were 20 µM, 1.5 µM and 10 µM, respectively.
